Activity calls are given as the source filed them. No cut-off for these calls is given here.
Tests used:
[1] = tested on: Hepatitis B virus; assay: Antiviral activity against adenovirus AdH294-WT harboring wild-type HBV genotype D accession #V01460 infected in human HepG2 cells assessed as reduction in viral replicative intermediate DNA level at 1100 nM incubated for 5 days by Southern blot analysis (reference value: 100%); assay type: functional; design: scale not given: the % may be the effect or the level left; conditions: time 5 day
[2] = tested on: Hepatitis B virus; assay: Antiviral activity against ETV-resistant and adenovirus AdH294-7LR harboring wild-type HBV infected in human HepG2 cells assessed as viral replicative intermediate DNA level at 13 nM incubated for 5 days by Southern blot analysis (reference value: 100%); assay type: functional; conditions: time 5 day
[3] = Toxicity in HBV infected hydrodynamic injection C57BL/6 mouse model assessed as effect on body weight at 0.6 to 60 mg/kg, po QD for 6 days; assay type: organism-based; conditions: in vivo, 144 h, dose 0.6-60 mg/kg, time 6 day
[4] = tested on: Hepatitis B virus; assay: Antiviral activity against HBV infected hydrodynamic injection C57BL/6 mouse model assessed as reduction in serum HBV DNA level at 0.6 to 60 mg/kg, po QD for 6 days by qPCR analysis; assay type: functional, organism-based; conditions: dose mg/kg 0.6-60, time 6.0 day
[5] = tested on: Hepatitis B virus; assay: Antiviral activity against adenovirus AdH294-WT harboring wild-type HBV genotype D accession #V01460 infected in human HepG2 cells assessed as reduction in viral replicative intermediate DNA level at 120 nM incubated for 5 days by Southern blot analysis (reference value: 100%); assay type: functional; design: scale not given: the % may be the effect or the level left; conditions: time 5 day
[6] = tested on: Hepatitis B virus; assay: Antiviral activity against ETV-resistant and adenovirus AdH294-7LR harboring wild-type HBV infected in human HepG2 cells assessed as viral replicative intermediate DNA level at 40 nM incubated for 5 days by Southern blot analysis (reference value: 100%); assay type: functional; conditions: time 5 day
[7] = tested on: Hepatitis B virus; assay: Antiviral activity against ETV-resistant and adenovirus AdH294-7LR harboring wild-type HBV infected in human HepG2 cells assessed as viral replicative intermediate DNA level at 1100 nM incubated for 5 days by Southern blot analysis (reference value: 100%); assay type: functional; conditions: time 5 day
[8] = tested on: Hepatitis B virus; assay: Antiviral activity against ETV-resistant and adenovirus AdH294-7LR harboring wild-type HBV infected in human HepG2 cells assessed as reduction in viral replicative intermediate DNAs up to 100 uM incubated for 5 days by Southern blot analysis; assay type: functional, organism-based; conditions: dose microM <=100, time 5.0 day
[9] = tested on: Hepatitis B virus; assay: Antiviral activity against ETV-resistant and adenovirus AdH294-7LR harboring wild-type HBV infected in human HepG2 cells assessed as viral replicative intermediate DNA level at 3300 nM incubated for 5 days by Southern blot analysis (reference value: 100%); assay type: functional; conditions: time 5 day
[10] = tested on: Hepatitis B virus; assay: Antiviral activity against ETV-resistant and adenovirus AdH294-7LR harboring wild-type HBV infected in human HepG2 cells assessed as viral replicative intermediate DNA level at 10000 nM incubated for 5 days by Southern blot analysis (reference value: 100%); assay type: functional; conditions: time 5 day
[11] = tested on: Hepatitis B virus; assay: Antiviral activity against adenovirus AdH294-WT harboring wild-type HBV genotype D accession #V01460 infected in human HepG2 cells assessed as reduction in viral replicative intermediate DNA level at 13 nM incubated for 5 days by Southern blot analysis (reference value: 100%); assay type: functional; design: scale not given: the % may be the effect or the level left; conditions: time 5 day
[12] = tested on: Hepatitis B virus; assay: Antiviral activity against adenovirus AdH294-WT harboring wild-type HBV genotype D accession #V01460 infected in human HepG2 cells assessed as reduction in viral replicative intermediate DNA level at 3300 nM incubated for 5 days by Southern blot analysis (reference value: 100%); assay type: functional; design: scale not given: the % may be the effect or the level left; conditions: time 5 day
[13] = tested on: Hepatitis B virus; assay: Antiviral activity against adenovirus AdH294-WT harboring wild-type HBV genotype D accession #V01460 infected in human HepG2 cells assessed as reduction in viral replicative intermediate DNA level at 10000 nM incubated for 5 days by Southern blot analysis (reference value: 100%); assay type: functional; design: scale not given: the % may be the effect or the level left; conditions: time 5 day
[14] = tested on: Hepatitis B virus; assay: Antiviral activity against adenovirus AdH294-WT harboring wild-type HBV genotype D accession #V01460 infected in human HepG2 cells assessed as reduction in viral replicative intermediate DNA level at 370 nM incubated for 5 days by Southern blot analysis (reference value: 100%); assay type: functional; design: scale not given: the % may be the effect or the level left; conditions: time 5 day
[15] = tested on: Hepatitis B virus; assay: Antiviral activity against ETV-resistant and adenovirus AdH294-7LR harboring wild-type HBV infected in human HepG2 cells assessed as viral replicative intermediate DNA level at 370 nM incubated for 5 days by Southern blot analysis (reference value: 100%); assay type: functional; conditions: time 5 day
[16] = tested on: Hepatitis B virus; assay: Antiviral activity against adenovirus AdH294-WT harboring wild-type HBV genotype D accession #V01460 infected in human HepG2 cells assessed as reduction in viral replicative intermediate DNA level at 4 nM incubated for 5 days by Southern blot analysis (reference value: 100%); assay type: functional; design: scale not given: the % may be the effect or the level left; conditions: time 5 day
[17] = tested on: Hepatitis B virus; assay: Antiviral activity against ETV-resistant and adenovirus AdH294-7LR harboring wild-type HBV infected in human HepG2 cells assessed as viral replicative intermediate DNA level at 4 nM incubated for 5 days by Southern blot analysis (reference value: 100%); assay type: functional; conditions: time 5 day
[18] = tested on: Hepatitis B virus; assay: Antiviral activity against adenovirus AdH294-WT harboring wild-type HBV genotype D accession #V01460 infected in human HepG2 cells assessed as reduction in viral replicative intermediate DNA level at 40 nM incubated for 5 days by Southern blot analysis (reference value: 100%); assay type: functional; design: scale not given: the % may be the effect or the level left; conditions: time 5 day
[19] = tested on: Hepatitis B virus; assay: Antiviral activity against ETV-resistant and adenovirus AdH294-7LR harboring wild-type HBV infected in human HepG2 cells assessed as viral replicative intermediate DNA level at 120 nM incubated for 5 days by Southern blot analysis (reference value: 100%); assay type: functional; conditions: time 5 day
[20] = tested on: Hepatitis B virus; assay: Antiviral activity against adenovirus AdH294-WT harboring wild-type HBV genotype D accession #V01460 infected in human HepG2 cells assessed as reduction in viral replicative intermediate DNAs at 4 to 1000 nM incubated for 5 days by Southern blot analysis; assay type: functional, organism-based; conditions: time 5.0 day
[21] = tested on: Hepatitis B virus; assay: Antiviral activity against ETV-resistant and adenovirus AdH294-7LR harboring wild-type HBV infected in human HepG2 cells assessed as reduction in viral replicative intermediate DNAs at 4 to 1000 nM incubated for 5 days by Southern blot analysis; assay type: functional, organism-based; conditions: time 5.0 day
[22] = tested on: Hepatitis B virus; assay: Antiviral activity against HBV infected in human HepDE19 cells assessed as reduction in HBV cccDNA incubated for 9 days by qPCR analysis; assay type: functional, organism-based; conditions: HepDE19, 216 h
[23] = Selectivity index, […] against HBV infected in human HepDE19 cells to CC50 for toxicity in human HepDE19 cells; assay type: cell-based; conditions: read-out: Ratio CC50/IC50
[24] = Toxicity in human HepDE19 cells assessed as reduction in beta-actin level incubated for 9 days by qPCR analysis; assay type: cell-based; conditions: time 9 day

C=C1[C@H](CO)[C@@H](O)C[C@@H]1n1cnc2c(=O)[nH]c(N)nc21.O [ENTECAVIR]
Activity [1]: 7% | Activity [2]: 92.2% | Activity [3]: Non-Toxic | Activity [4]: Dose-dependent effect | Activity [5]: 13.8% | Activity [6]: 98.6% | Activity [7]: 51.2% | Activity [8]: inactive | Activity [9]: 35.5% | Activity [10]: 37% | Activity [11]: 25.7% | Activity [12]: 4.6% | Activity [13]: 2.9% | Activity [14]: 10.5% | Activity [15]: 60.4% | Activity [16]: 46.4% | Activity [17]: 93.9% | Activity [18]: 16% | Activity [19]: 63.8% | Activity [20]: Active

CC(C)OC(=O)[C@H](C)N[P@](=O)(CO[C@H](C)Cn1cnc2c(N)ncnc21)Oc1ccccc1 [TENOFOVIR ALAFENAMIDE]
Activity [1]: 1.3% | Activity [21]: Active | Activity [2]: 38.3% | Activity [3]: Non-Toxic | Activity [4]: Dose-dependent effect | Activity [5]: 10.8% | Activity [6]: 21.4% | Activity [7]: 2.6% | Activity [9]: 1.2% | Activity [10]: 0% | IC50 [22]: 40 nM | IC90 ([22]; time 9 day): > 100 nM | Activity [11]: 40.7% | Activity [12]: 0% | Activity [13]: 0% | Activity [14]: 4.2% | Activity [15]: 5% | selectivity ratio [23]: 13 | Activity [16]: 75.6% | Activity [17]: 93.7% | Activity [18]: 18.1% | CC50 at 216 h [24]: 500 nM | Activity [19]: 11.3%

Reference: ChEMBL document CHEMBL4665893, “Scalable Synthesis, In Vitro cccDNA Reduction, and In Vivo Antihepatitis B Virus Activity of a Phosphonomethoxydeoxythreosyl Adenine Prodrug” (J Med Chem, 2020)
